# Experiments:
# Assay type in all cases: in vivo, Drosophila melanogaster
# bnk-tTa × tRe-Nipp1Dm = assay: Tc-repressible lethality using an embryo-specific promoter (Table 2), adult progeny by sex; conditions: embryos laid on this food for 9 days
# Source text: Flies were reared on standard yeast/cornmeal/agar food with a yeast concentration of 45-50 gl^−1. Tc-containing food was made to the same recipe with the addition of tetracycline hydrochloride (Sigma-Aldrich) solution to the appropriate final concentration.
# As ectopic Ras64B^V12 apparently lacks embryonic toxicity under the conditions we are using, we placed a different toxic gene under the control of tRe. We chose to use Nipp1Dm, a Drosophila homolog of mammalian NIPP-1, a nuclear inhibitor of protein phosphatase type 1 (Beullens et al., (1992), J. Biol. Chem. 267, 16538-16544; Van Eynde et al., (1995), J Biol Chem 270, 28068-74). NIPP1 has several advantages as a “killer gene” in this system. Flies carrying homozygous insertions of bnk-tTa or tRe-Nipp1 were crossed to each other. […] Furthermore, F1 survival was not affected by the presence or absence of Tc in the media on which the F1 were raised. We have therefore constructed an efficient dominant lethal genetic system repressible by parental dietary Tc.
# Males homozygous for bnk-tTa were mated with females homozygous for either tRe-Ras64B^V12 or tRe-Nipp1Dm. These flies were raised on media lacking Tc, but before mating were placed on food containing various concentrations of Tc. They were allowed to lay embryos on this food for 9 days, and then the parents were removed. Their adult progeny of each sex were counted.
# [1] = tested on: Sxlp^e tTa, tRe Msl-1^Mpu on the X chromosome; assay: Recombinant chromosome experiments: parents raised on supplement, progeny on normal food, adults by sex (25, 18 or 29° C.)
# Procedure: (§1) 40-45 young females and 20-25 young males raised at 25° C. upon food with the indicated tetracycline supplement were allowed to mate, then transferred to normal (tetracycline-free) food after 3-4 days. These flies were transferred to fresh vials of normal food every day for 12 days, then removed on the 13th day. All the vials were incubated at 25° C. while the progeny developed. The numbers of male and female progeny emerging as adults in each vial were recorded.
# (§2) A standard range of additive concentrations were used in the following experiments (0.05-20 μg/ml). […] (=“not done”)
# (§3) All the preceding experiments were performed at 25° C., the standard temperature for Drosophila culture. However, the insects in the wild would clearly be exposed to varying temperatures, so we investigated the extent to which the efficiency of the system is affected by temperature. As with the recombinant chromosome experiments, 40-45 young virgin females and 20-25 young males raised at 25° C. upon food with the indicated tetracycline supplement were allowed to mate, then transferred to normal (tetracycline-free) food after 3-4 days. These flies were transferred to fresh vials of normal food every day. The numbers of male and female progeny emerging as adults in each vial were recorded. These experiments were performed at either 18° C. or 29° C.
# [2] = tested on: Hsp26 tTa, tRe Msl-2^Nopu on the 2nd chromosome; assay: as above
# Procedure: as §1, §2, §3
# [3] = tested on: Yp3 tTa, tRe Msl-2^Nopu on the 2nd chromosome; assay: as above
# Procedure: as §1, §2, §3
# [4] = tested on: Sxl^pe-tTA, tRE-Msl-2^Nopu on the X chromosome; assay: as above; conditions: for Female progeny per daily vial / Female progeny Total / Male progeny Total: 25° C.; for Female progeny per daily vial: Day 1-12 on tetracycline-free food; for Female progeny Total / Male progeny Total: Day 1-12 total
# Procedure: as §1, §2, §3
# [5] = parents on food containing Tc 0.1 μg/ml
# [6] = parents on food containing Tc 1.0 μg/ml
# [7] = parents raised on tetracycline 0.1 μg/ml, 18° C.
# [8] = parents raised on tetracycline 0.1 μg/ml, 29° C.
# [9] = parents raised on tetracycline 1 μg/ml, 18° C.
# [10] = parents raised on tetracycline 1 μg/ml, 29° C.
# [11] = parents raised on tetracycline 5 μg/ml, 18° C.
# [12] = parents raised on tetracycline 5 μg/ml, 29° C.
# [13] = parents raised on Tet. 0.1 μg/ml
# [14] = parents raised on Tet. 20 μg/ml
# [15] = parents raised on Tet. 100 μg/ml
# [16] = parents raised on Tet. 500 μg/ml
# [17] = parents raised on Tet. 1000 μg/ml
# [18] = parents raised on Tet. 2000 μg/ml
structure (smiles),measurement,setting,value
"CN(C)[C@@H]1C(O)=C(C(N)=O)C(=O)[C@@]2(O)C(O)=C3C(=O)c4c(O)cccc4[C@@](C)(O)[C@H]3C[C@@H]12 [Tetracycline, tetracycline]","Females, adult progeny",bnk-tTa × tRe-Nipp1Dm; [5],58
same,"Males, adult progeny",bnk-tTa × tRe-Nipp1Dm; [5],60
same,"Females, adult progeny",bnk-tTa × tRe-Nipp1Dm; [6],82
same,"Males, adult progeny",bnk-tTa × tRe-Nipp1Dm; [6],78
same,Female progeny emerging as adults,[1]; [7],8
same,Male progeny emerging as adults,[1]; [7],840
same,Female progeny emerging as adults,[1]; [8],0
same,Male progeny emerging as adults,[1]; [8],732
same,Female progeny emerging as adults,[1]; [9],5
same,Male progeny emerging as adults,[1]; [9],927
same,Female progeny emerging as adults,[1]; [10],0
same,Male progeny emerging as adults,[1]; [10],771
same,Female progeny emerging as adults,[1]; [11],8
same,Male progeny emerging as adults,[1]; [11],837
same,Female progeny emerging as adults,[1]; [12],0
same,Male progeny emerging as adults,[1]; [12],816
same,Female progeny emerging as adults,[2]; [7],8
same,Male progeny emerging as adults,[2]; [7],832
same,Female progeny emerging as adults,[2]; [8],0
same,Male progeny emerging as adults,[2]; [8],696
same,Female progeny emerging as adults,[2]; [9],7
same,Male progeny emerging as adults,[2]; [9],879
same,Female progeny emerging as adults,[2]; [10],0
same,Male progeny emerging as adults,[2]; [10],658
same,Female progeny emerging as adults,[2]; [11],4
same,Male progeny emerging as adults,[2]; [11],818
same,Female progeny emerging as adults,[2]; [12],0
same,Male progeny emerging as adults,[2]; [12],711
same,Female progeny emerging as adults,[3]; [7],8
same,Male progeny emerging as adults,[3]; [7],1152
same,Female progeny emerging as adults,[3]; [8],0
same,Male progeny emerging as adults,[3]; [8],765
same,Female progeny emerging as adults,[3]; [9],12
same,Male progeny emerging as adults,[3]; [9],1122
same,Female progeny emerging as adults,[3]; [10],0
same,Male progeny emerging as adults,[3]; [10],702
same,Female progeny emerging as adults,[3]; [11],3
same,Male progeny emerging as adults,[3]; [11],1225
same,Female progeny emerging as adults,[3]; [12],0
same,Male progeny emerging as adults,[3]; [12],773
same,Female progeny per daily vial,[4]; [13],0
same,Female progeny Total,[4]; [13],0
same,Male progeny Total,[4]; [13],1464
same,Female progeny per daily vial,[4]; parents raised on Tet. 1 μg/ml,0
same,Female progeny Total,[4]; parents raised on Tet. 1 μg/ml,0
same,Male progeny Total,[4]; parents raised on Tet. 1 μg/ml,1527
same,Female progeny per daily vial,[4]; parents raised on Tet. 5 μg/ml,0
same,Female progeny Total,[4]; parents raised on Tet. 5 μg/ml,0
same,Male progeny Total,[4]; parents raised on Tet. 5 μg/ml,1535
same,Female progeny per daily vial,[4]; [14],0
same,Female progeny Total,[4]; [14],0
same,Male progeny Total,[4]; [14],1243
same,Female progeny per daily vial,[4]; [15],0
same,Female progeny Total,[4]; [15],0
same,Male progeny Total,[4]; [15],1483
same,Female progeny Total,[4]; [16],2
same,Male progeny Total,[4]; [16],1625
same,Female progeny Total,[4]; [17],29
same,Male progeny Total,[4]; [17],1402
same,Female progeny Total,[4]; [18],44
same,Male progeny Total,[4]; [18],1543
same,Female progeny emerging as adults,[4]; [7],6
same,Male progeny emerging as adults,[4]; [7],695
same,Female progeny emerging as adults,[4]; [8],0
same,Male progeny emerging as adults,[4]; [8],682
same,Female progeny emerging as adults,[4]; [9],8
same,Male progeny emerging as adults,[4]; [9],816
same,Female progeny emerging as adults,[4]; [10],0
same,Male progeny emerging as adults,[4]; [10],804
same,Female progeny emerging as adults,[4]; [11],8
same,Male progeny emerging as adults,[4]; [11],785
same,Female progeny emerging as adults,[4]; [12],0
same,Male progeny emerging as adults,[4]; [12],648

# Reference: patent publication US9125388B2, “Biological control” (Isis Innovation Limited, priority 1999, dated 2015)
